Test [1] can be described thus: DPPH radical scavenging. The following applies: triplicates, mean ± SD; for IC50: isolated compounds dissolved in DMSO. How it is done: Pure substances and crude extracts (Soxhlet) were dissolved in DMSO, and the assay was carried out as reported previously. Quercetin (Sigma-Aldrich) was used as positive control.
On the technique in general: DPPH is a stable violet radical that fades when it is reduced.

Test [2] addresses xanthine oxidase (XO) (Bos taurus, UniProt P80457). The test can be described thus: Inhibition of xanthine oxidase (XO). The format is biochemical. The following applies: isolated compounds dissolved in DMSO; triplicates, mean ± SD. How it is done:
(§1) Pure substances and crude extracts (Soxhlet) were dissolved in DMSO, and the assay was carried out as reported previously.

Test [3] deals with T1, 15-lipoxygenase (15-LO) (Glycine max, UniProt P08170).
T1 sequence (P08170 1-839): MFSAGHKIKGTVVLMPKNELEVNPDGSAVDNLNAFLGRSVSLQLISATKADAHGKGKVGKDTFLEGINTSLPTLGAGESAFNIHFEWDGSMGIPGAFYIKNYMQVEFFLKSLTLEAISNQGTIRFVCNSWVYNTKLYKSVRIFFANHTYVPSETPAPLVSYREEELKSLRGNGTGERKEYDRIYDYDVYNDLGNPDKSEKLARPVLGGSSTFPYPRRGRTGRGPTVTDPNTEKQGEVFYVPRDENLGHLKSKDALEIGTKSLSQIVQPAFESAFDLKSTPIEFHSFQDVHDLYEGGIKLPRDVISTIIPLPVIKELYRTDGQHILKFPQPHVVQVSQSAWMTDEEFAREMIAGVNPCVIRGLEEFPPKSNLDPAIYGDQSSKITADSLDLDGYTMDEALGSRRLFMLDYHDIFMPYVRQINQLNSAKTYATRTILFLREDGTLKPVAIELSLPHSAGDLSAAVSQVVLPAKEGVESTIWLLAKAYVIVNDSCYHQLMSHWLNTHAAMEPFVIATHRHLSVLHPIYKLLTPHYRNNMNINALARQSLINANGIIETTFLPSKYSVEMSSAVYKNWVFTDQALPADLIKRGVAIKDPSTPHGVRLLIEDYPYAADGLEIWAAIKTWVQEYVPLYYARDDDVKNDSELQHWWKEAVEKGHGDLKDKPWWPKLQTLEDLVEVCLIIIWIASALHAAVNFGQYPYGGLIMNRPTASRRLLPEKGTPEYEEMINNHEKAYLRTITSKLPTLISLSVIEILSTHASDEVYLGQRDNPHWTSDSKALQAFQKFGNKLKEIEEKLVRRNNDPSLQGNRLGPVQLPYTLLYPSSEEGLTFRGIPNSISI
In words: Inhibition of 15-lipoxygenase (15-LO). The format is biochemical. The following applies: isolated compounds dissolved in DMSO, triplicates, mean ± SD. How it is done: as §1

The mark [4] stands for this setting: read-out: 15-lipoxygenase (15-LO) inhibition IC50 ± SD.

Experimental findings from publication PMC6270149, “Bioactive Flavone-C-Glycosides of the African Medicinal Plant Biophytum umbraculum” (Molecules, 2013) are described below.

Read-outs that look alike come from different tables or passages of the source.

For orientation: IC50 means the concentration needed to halve the response being measured.

xanthine oxidase (XO), sequence (P80457 whole entry): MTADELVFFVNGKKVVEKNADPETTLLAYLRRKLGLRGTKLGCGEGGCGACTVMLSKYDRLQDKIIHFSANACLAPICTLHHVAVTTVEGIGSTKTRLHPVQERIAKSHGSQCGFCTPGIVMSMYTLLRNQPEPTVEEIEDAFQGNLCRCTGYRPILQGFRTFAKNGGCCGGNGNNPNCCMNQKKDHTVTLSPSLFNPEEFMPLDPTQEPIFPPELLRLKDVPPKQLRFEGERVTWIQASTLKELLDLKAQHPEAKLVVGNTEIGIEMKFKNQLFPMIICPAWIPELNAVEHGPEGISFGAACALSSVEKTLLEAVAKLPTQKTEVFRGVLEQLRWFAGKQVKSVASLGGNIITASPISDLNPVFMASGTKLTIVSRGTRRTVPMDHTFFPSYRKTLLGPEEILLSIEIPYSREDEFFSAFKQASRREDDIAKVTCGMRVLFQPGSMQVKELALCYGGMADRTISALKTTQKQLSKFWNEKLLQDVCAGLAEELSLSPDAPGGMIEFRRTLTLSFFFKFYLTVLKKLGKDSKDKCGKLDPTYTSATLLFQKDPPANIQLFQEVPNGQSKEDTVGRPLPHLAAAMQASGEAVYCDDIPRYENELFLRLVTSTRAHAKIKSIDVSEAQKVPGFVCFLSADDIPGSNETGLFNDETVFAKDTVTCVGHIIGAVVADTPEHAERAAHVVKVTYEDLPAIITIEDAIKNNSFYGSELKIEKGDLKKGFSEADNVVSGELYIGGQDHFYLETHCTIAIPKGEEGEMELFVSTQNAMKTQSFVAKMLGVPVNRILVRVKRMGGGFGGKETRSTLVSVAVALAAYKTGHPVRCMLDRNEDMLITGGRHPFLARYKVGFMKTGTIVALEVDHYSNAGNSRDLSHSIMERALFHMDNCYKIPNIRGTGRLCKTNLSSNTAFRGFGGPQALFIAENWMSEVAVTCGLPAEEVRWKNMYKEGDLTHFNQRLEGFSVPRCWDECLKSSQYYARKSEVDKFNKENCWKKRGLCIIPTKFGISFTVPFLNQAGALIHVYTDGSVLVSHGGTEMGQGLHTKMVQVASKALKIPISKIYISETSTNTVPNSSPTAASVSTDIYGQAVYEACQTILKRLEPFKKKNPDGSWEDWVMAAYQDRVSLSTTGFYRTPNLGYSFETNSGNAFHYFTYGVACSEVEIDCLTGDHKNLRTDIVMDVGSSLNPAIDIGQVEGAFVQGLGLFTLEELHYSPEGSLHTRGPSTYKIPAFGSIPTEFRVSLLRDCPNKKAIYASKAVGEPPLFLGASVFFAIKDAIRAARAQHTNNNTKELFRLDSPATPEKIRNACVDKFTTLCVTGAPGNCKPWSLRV

Turning to `C[C@@H]1O[C@@H](O[C@H]2C(=O)[C@@H](O)[C@H](C)O[C@@H]2c2c(O)cc3oc(-c4ccc(O)cc4)cc(=O)c3c2O)[C@H](O)[C@H](O)[C@H]1O` [Cassiaoccidentalin A (1), cassiaoccidentalin A], the IC50 in test [1] was above 167 µM; in test [2] it was 150 ± 7.4 µM; in test [3] (setting [4]), 99.9 ± 2.5 µM.
For `O=c1cc(-c2ccc(O)cc2)oc2cc(O)c([C@@H]3O[C@H](CO)[C@@H](O)[C@H](O)[C@H]3O)c(O)c12` [Isovitexin (2), isovitexin], in that order: 96 ± 3.6 µM, above 167 µM and 107 ± 2.1 µM.
Turning to `O=c1c(O)c(-c2ccc(O)c(O)c2)oc2cc(O)cc(O)c12` [Quercetin, reference compound], the “DPPH radical scavenging IC50 ± SD” value in test [1] (extracts (Soxhlet) dissolved in DMSO) is 4.4 ± 0.4 mg/L. The same compound yielded an IC50 in test [1] of 13.7 ± 1.3 µM.
On to `O=c1cc(-c2ccc(O)c(O)c2)oc2cc(O)c([C@@H]3O[C@H](CO)[C@@H](O)[C@H](O)[C@H]3O)c(O)c12` [Isoorientin (3), isoorientin], for which the half-inhibitory concentration (IC50) was found to be 18.1 ± 1.1 µM in test [1], 117 ± 13.5 µM in test [2] and 86.4 ± 0.5 µM in test [3] (15-lipoxygenase (15-LO) inhibition IC50 ± SD).
